Test results: paper PMC6934184, “Selective DNA-PKcs inhibition extends the therapeutic index of localized radiotherapy and chemotherapy” (The Journal of Clinical Investigation, 2019)

Biological target: T1, PRKG1 (Homo sapiens, UniProt Q13976)
T1 construct: purchased Thermo Fisher Scientific (Life Technologies) SelectScreen
Experiment: SelectScreen Z'LYTE
Assay type: biochemical
How it was run: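 NU5455 was profiled across the SelectScreen Broad panel of kinase activity and binding assays. Z'LYTE reactions such as CSF1R ran at apparent Km ATP, while the Adapta CAMK1 assay used ATP listed as 10. Values are given as percent.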

T1 sequence (Q13976 whole entry): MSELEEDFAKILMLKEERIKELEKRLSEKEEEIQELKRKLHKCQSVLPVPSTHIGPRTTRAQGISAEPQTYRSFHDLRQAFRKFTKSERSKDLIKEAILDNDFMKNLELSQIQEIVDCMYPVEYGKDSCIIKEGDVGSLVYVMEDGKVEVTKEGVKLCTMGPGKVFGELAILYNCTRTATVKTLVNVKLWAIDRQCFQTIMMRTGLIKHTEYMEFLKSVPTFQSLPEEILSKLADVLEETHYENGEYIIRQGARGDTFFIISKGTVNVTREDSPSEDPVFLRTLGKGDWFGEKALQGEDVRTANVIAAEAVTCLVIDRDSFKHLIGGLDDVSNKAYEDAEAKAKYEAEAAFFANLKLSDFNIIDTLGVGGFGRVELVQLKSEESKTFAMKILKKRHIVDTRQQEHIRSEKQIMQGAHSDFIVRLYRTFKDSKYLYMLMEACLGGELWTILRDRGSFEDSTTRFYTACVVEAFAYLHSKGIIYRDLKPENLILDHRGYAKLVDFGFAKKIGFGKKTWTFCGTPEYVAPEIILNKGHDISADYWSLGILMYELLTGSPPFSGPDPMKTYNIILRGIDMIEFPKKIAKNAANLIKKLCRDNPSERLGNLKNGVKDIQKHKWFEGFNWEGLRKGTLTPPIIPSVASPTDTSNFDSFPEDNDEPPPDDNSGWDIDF

CN(C(=O)CN1CCOCC1)c1ccc2sc3c(-c4cccc5c(=O)cc(N6CC7CCC(C6)O7)oc45)cccc3c2c1 [NU5455]
inhibition at 1 µM: -2.7%
